Reference: publication PMC9056855 (RSC Advances, 2020)

Legend:
Format in all cases: biochemical
[1] = biological target: T1, UGT1A9 (Homo sapiens, UniProt O60656); test: probe substrate turnover, UHPLC
T1 sequence (O60656 26-530): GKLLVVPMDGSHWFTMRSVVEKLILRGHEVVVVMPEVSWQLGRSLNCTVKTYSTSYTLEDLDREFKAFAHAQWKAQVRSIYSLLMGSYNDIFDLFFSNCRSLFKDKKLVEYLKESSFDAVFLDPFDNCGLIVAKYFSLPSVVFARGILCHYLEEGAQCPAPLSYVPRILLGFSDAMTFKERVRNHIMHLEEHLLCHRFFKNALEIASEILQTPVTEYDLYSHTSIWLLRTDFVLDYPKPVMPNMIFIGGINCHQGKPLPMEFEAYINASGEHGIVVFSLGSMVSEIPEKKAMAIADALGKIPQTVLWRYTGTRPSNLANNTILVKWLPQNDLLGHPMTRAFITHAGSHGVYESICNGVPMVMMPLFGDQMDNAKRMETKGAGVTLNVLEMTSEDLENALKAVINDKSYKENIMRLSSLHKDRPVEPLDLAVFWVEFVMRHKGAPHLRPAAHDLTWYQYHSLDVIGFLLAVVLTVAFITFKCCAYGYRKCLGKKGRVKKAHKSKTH

[2] = biological target: T2, CYP1A2 (Homo sapiens, UniProt P05177); test: probe substrate turnover, UHPLC
T2 sequence (P05177 2-516): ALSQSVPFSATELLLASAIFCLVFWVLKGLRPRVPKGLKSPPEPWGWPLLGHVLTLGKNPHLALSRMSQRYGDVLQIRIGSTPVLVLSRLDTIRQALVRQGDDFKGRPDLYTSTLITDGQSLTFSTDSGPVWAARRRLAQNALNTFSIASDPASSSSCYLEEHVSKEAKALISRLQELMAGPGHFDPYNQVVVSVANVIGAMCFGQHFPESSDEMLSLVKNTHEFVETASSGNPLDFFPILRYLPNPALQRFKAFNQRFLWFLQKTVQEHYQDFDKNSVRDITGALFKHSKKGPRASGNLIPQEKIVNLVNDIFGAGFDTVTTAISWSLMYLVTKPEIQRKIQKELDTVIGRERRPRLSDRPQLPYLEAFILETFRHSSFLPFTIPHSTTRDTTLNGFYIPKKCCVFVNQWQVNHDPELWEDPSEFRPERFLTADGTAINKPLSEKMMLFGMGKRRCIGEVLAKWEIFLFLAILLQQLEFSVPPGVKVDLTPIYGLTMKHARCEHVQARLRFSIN

[3] = biological target: CYP2E1 (Homo sapiens, UniProt P05181); test: probe substrate turnover, UHPLC
[4] = biological target: T3, UGT2B7 (Homo sapiens, UniProt P16662); test: probe substrate turnover, UHPLC
T3 sequence (P16662 24-529): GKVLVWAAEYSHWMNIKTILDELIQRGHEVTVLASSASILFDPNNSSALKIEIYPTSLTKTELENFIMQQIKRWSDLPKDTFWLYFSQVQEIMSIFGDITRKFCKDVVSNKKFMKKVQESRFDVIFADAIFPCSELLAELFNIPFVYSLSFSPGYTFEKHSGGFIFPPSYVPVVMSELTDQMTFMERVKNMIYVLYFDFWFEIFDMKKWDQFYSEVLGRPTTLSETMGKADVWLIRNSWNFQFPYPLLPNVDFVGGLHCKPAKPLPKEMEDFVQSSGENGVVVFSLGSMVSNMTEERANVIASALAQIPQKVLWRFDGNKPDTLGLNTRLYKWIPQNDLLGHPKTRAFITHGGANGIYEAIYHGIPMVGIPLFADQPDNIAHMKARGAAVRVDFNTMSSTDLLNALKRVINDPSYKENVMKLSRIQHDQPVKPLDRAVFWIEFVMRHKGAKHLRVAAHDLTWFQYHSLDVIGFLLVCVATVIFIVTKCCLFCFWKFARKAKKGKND

[5] = biological target: T4, CYP2C8 (Homo sapiens, UniProt P10632); test: probe substrate turnover, UHPLC
T4 sequence (P10632 1-490): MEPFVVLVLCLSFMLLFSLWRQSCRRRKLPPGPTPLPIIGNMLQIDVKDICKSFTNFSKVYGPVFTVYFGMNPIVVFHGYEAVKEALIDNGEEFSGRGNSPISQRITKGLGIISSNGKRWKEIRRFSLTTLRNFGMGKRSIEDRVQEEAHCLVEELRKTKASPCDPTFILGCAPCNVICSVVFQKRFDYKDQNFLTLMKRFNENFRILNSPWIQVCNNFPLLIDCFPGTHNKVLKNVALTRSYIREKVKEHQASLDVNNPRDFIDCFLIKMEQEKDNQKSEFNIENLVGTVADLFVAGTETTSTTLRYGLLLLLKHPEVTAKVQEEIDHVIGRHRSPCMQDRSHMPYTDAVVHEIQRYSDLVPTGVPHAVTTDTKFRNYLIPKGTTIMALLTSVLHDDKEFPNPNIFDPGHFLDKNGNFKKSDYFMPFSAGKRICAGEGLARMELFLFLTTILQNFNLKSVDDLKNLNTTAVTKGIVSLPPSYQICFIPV

[6] = biological target: T5, CYP2B6 (Homo sapiens, UniProt P20813); test: probe substrate turnover, UHPLC
T5 sequence (P20813 1-491): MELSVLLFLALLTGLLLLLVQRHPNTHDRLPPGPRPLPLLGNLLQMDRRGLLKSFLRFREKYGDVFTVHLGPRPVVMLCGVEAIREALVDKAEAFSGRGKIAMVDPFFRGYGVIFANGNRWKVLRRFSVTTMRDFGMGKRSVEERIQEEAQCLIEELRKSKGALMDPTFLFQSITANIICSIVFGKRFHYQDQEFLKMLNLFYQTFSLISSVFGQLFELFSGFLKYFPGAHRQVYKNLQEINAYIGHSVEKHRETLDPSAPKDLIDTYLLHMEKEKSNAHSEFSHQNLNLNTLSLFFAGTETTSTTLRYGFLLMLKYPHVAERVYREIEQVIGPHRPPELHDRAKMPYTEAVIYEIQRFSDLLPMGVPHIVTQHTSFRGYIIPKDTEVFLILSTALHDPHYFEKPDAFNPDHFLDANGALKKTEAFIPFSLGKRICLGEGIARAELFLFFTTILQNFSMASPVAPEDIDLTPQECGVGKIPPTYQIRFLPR

[7] = biological target: T6, CYP2C19 (Homo sapiens, UniProt P33261); test: inhibition kinetics, nonlinear fit, Dixon plot, UHPLC
[8] = biological target: T3, UGT2B7; test: as above
[9] = biological target: T7, CYP2C9 (Homo sapiens, UniProt P11712); test: as above
[10] = biological target: T6, CYP2C19; test: probe substrate turnover, UHPLC
[11] = biological target: T5, CYP2B6; test: inhibition kinetics, nonlinear fit, Dixon plot, UHPLC
[12] = biological target: CYP3A4 (Homo sapiens, UniProt P08684); test: probe substrate turnover, UHPLC
[13] = biological target: T1, UGT1A9; test: inhibition kinetics, nonlinear fit, Dixon plot, UHPLC
[14] = biological target: T8, UGT1A1 (Homo sapiens, UniProt P22309); test: probe substrate turnover, UHPLC
T8 sequence (P22309 26-533): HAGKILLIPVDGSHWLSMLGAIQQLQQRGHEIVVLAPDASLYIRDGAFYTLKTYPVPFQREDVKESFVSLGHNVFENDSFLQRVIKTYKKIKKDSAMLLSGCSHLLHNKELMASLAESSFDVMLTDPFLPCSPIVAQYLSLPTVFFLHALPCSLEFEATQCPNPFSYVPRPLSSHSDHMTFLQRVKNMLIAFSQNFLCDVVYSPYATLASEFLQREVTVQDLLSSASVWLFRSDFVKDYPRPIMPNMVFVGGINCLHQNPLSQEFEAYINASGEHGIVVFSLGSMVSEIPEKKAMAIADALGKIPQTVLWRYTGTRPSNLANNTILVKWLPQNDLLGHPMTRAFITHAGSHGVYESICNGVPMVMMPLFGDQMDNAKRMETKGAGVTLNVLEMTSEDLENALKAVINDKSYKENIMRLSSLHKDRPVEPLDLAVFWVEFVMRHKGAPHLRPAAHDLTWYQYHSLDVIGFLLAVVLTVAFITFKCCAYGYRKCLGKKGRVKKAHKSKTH

[15] = biological target: T7, CYP2C9; test: probe substrate turnover, UHPLC

T6 sequence (P33261 whole entry): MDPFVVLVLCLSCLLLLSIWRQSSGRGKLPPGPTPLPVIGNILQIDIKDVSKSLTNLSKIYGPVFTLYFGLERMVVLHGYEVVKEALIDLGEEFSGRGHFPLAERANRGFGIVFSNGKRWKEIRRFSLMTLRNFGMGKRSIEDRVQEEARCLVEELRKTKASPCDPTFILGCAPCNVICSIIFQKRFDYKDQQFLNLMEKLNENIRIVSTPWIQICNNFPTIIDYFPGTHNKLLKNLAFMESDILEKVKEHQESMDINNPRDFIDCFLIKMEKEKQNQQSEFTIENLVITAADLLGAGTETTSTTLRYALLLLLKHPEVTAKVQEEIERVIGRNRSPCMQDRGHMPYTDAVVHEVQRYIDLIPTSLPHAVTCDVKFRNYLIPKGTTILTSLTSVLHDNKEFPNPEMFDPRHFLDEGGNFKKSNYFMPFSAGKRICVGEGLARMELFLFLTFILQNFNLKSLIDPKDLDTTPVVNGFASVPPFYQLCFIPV
T7 sequence (P11712 whole entry): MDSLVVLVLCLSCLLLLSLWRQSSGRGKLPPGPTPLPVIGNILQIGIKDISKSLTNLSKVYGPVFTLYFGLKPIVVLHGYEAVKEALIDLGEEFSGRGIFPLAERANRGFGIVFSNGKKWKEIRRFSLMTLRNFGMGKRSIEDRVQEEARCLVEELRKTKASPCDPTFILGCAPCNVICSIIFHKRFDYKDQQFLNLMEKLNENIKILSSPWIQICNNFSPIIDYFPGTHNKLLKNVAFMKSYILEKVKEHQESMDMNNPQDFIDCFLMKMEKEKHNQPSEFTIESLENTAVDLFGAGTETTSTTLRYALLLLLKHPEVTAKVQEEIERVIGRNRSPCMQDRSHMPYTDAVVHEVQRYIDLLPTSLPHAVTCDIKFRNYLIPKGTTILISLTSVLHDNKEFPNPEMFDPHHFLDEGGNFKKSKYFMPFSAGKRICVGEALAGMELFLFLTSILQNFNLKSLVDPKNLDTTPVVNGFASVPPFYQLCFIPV
Chain of CYP2E1 (P05181 whole entry): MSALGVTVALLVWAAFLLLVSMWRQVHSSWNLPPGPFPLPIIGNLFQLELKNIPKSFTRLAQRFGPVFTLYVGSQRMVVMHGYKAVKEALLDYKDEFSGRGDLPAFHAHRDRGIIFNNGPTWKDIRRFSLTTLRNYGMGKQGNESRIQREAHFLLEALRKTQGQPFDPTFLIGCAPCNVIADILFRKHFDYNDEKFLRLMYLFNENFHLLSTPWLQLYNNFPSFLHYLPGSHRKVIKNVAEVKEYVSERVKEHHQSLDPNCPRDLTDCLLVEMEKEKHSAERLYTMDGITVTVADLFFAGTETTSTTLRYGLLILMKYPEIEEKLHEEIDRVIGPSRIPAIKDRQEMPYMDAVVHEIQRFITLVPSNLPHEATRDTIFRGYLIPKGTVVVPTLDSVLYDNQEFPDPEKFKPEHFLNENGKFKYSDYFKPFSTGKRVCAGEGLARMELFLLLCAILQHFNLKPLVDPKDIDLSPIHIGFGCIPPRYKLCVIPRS
Chain of CYP3A4 (P08684 2-503): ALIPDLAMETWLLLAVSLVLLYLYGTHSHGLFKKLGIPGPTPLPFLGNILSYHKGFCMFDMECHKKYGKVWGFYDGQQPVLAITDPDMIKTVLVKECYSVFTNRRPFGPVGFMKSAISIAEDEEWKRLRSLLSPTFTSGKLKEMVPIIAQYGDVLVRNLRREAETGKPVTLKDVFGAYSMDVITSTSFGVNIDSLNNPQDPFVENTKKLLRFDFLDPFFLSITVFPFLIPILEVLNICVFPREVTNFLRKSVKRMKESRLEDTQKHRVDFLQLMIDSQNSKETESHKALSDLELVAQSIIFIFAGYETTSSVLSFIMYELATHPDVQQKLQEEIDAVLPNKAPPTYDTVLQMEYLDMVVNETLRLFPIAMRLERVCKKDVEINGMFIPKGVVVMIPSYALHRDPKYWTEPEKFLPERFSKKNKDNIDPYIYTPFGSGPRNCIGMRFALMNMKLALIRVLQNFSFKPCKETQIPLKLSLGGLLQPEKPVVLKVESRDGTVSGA

IC50 [1]: 2340 ± 610 nM | % residual activity at 100 μM [2]: 91.5% | % residual activity at 100 μM [3]: 51.5% | IC50 [4]: 2530 ± 620 nM | % residual activity at 100 μM [5]: 21.5% | IC50 [6]: 1680 ± 630 nM | Ki [7]: 1860 ± 160 nM | Ki [8]: 1130 ± 120 nM | Ki [9]: 190 ± 30 nM | IC50 [10]: 1380 ± 530 nM | Ki [11]: 1510 ± 120 nM | % residual activity at 100 μM [12]: 24.7% | Ki [13]: 370 ± 40 nM | IC50 [14]: 20700 ± 10600 nM | IC50 [15]: 280 ± 70 nM
Compound: COc1cc2c(cc1CC=C(C)C)C(=O)C[C@@H](c1ccc(O)cc1)O2 [bavachinin]
